One data set relates to E. coli. Particulars: for MBC: agent alone.
Another data set has as its system Staphylococcus aureus. Particulars: for MBC: agent alone.
A further data set concerns Pseudomonas aeruginosa. The experiment in a line: microbe, parasite or virus in culture. Particulars: read-out: Minimum Inhibitory Concentrations, Pseudomonas aeruginosa 27853.
For the next data set, the system named is Serratia marcescens. The experiment in a line: microbe, parasite or virus in culture. The format is cell-based. Particulars: Serratia marcescens 13880; read-out: Minimum Inhibitory Concentrations. The protocol:
(§1) Acne vulgaris may involve a microbial consortium. Although P. acnes may be a prominent member of such a consortium, other uncharacterized bacteria may also participate. The microbial activity of XMP.629 as an acetate gel as described in Example 5 and other commonly used antibiotics was evaluated against a panel of human pathogens using standardized NCCLS protocols. […] Lesser potency was observed against the gram-negative organisms B. fragilis, B. cepacia, P. mirabilis and S. marcescens, which are often refractory to many antimicrobial compounds.

The next data set has as its system Klebsiella pneumoniae. As to the kind of experiment: microbe, parasite or virus in culture. Particulars: Klebsiella pneumoniae, read-out: Minimum Inhibitory Concentrations. The class given is cell-based. The protocol:
as §1

The next data set deals with Proteus mirabilis. The experiment in a line: microbe, parasite or virus in culture. The class given is cell-based. Particulars: Proteus mirabilis 29852; read-out: Minimum Inhibitory Concentrations. Here is the method:
as §1

Another data set has as its system Escherichia coli. The experiment in a line: microbe, parasite or virus in culture. The format is cell-based. Particulars: Escherichia coli, Escherichia coli 0111:B4; read-out: Minimum Inhibitory Concentrations. Here is the method: as §1
Another data set relates to S. aureus. As to the kind of experiment: Comparison of XMP.629 with standard topical agents (MIC90/MBC). Particulars: Staphylococcus aureus. The class given is cell-based, Staphylococcus aureus.
The conditions of data set [1]: 0.3 mg/kg intravenous.
The conditions of data set [2]: rat, 0.3 mg/kg intravenous.
Protocol: Whole body autoradiography studies measured the concentration of tritium in tissues at several time points following dosing. From these concentrations, area under the concentration vs. time curve (AUC) was calculated as a measure of overall exposure (see Table 25).
The subject of the next data set is hemizygous Tg.AC mice. The experiment in a line: Mouse dermal carcinogenicity study (TPA in XMP.629 acetate gel placebo). The format is in vivo. The protocol: XMP.629 was evaluated in a dermal carcinogenicity study to determine whether repeated dermal treatment with tetradeconyl phorbol acetate (TPA) in a XMP.629 acetate gel placebo formulation increased the incidence of skin tumors in hemizygous Tg.AC mice. […] Group 1 was treated with XMP.629 acetate gel placebo alone. A sixth group (Group 2) was treated with TPA dissolved in acetone at a dose level of 1.25 μg per 150 μL application and served as a reference standard. The animals were dosed via dermal application three times per week (e.g., Monday, Wednesday and Friday) for 12 consecutive weeks.
All animals were observed twice daily for moribundity and mortality. A hands-on examination was performed weekly at the time the animals were weighed on Day 1 and weekly thereafter. At that time, the animals were examined for clinical evidence of toxicity, carcinogenicity, and/or irritation at the site of application. […] The number of tumors at the site of application (SOA) and non-site of application (non-SOA) was recorded for each animal each week. At the end of the study (Day 85), the surviving animals were euthanized with CO2 asphyxiation. A necropsy was not performed.

The test system of data set [3] is P. acnes. As to the kind of experiment: microbe, parasite or virus in culture. Particulars: Cutibacterium acnes.
The test system of data set [4] is P. acnes strain (ATCC 6919). Particulars: P. acnes ATCC 6919 passaged in the drug; level of the resistant culture sought/obtained.
In data set [5] the test system is P. acnes. As to the kind of experiment: microbe, parasite or virus in culture. Particulars: Cutibacterium acnes, clindamycin/erythromycin sensitive strain UP2022.
In data set [6] the test system is P. acnes. Particulars: strains UPC686 and UP2022; with XMP.629.
In data set [7] the test system is albino hairless guinea pigs Crl:IAF(HA)-hrBR (Outbred). The experiment in a line: Photosafety study: primary irritancy, phototoxicity, contact hypersensitivity, photoallergy. The format is in vivo, guinea pig. Particulars: single topical administration and UVR; XMP.629 up to 10 mg/mL (1.0%). The protocol:
XMP.629 was evaluated for photoallergic potential administered topically to hairless guinea pigs. Primary irritancy, phototoxicity (photoirritancy) and contact hypersensitivity were also evaluated in these studies.
Male CrI:IaF(HA)-hrBR (Outbred) albino hairless guinea pigs were assigned to 7 groups, five guinea pigs per group as outlined below.
XMP.629 was formulated as a gel. The phototoxicity comparator article was 8-methoxypsoralen (8-MOP) in methanol at concentrations of 0.1, 0.3 and 1.0 mg/mL. The contact hypersensitivity and photoallergy comparator article was 3,3′,4′,5′-tetrachlorosalicy/anilide (TCSA) in acetone:corn oil (4:1, v/v) at challenge concentrations of 0 (Vehicle), 10, and 30 mg/mL. The reagent and reagent vehicle were Freund's complete adjuvant (FCA) and sterile water for injection, USP, respectively.
The formulation administration and ultraviolet radiation (UVR) exposure regimens for each group in the study were as follows.
For all phases of the study, test articles, test article vehicles, comparator articles and comparator article vehicles were administered (0.3 ml) using a Hilltop chamber affixed to the guinea pig with dental dam overlaid with a Velcro® wrap for approximately 2.0 hours per administration.
Primary irritancy potential of the test articles and test article vehicles was evaluated in Group 1 guinea pigs. Three chambers (one per formulation dosage) were attached to the dorsal skin along the midline. After the administration period the chamber patches were removed and the application sites were gently wiped.
Cutaneous phototoxicity potential of the test articles and test article vehicles was evaluated in Group 2 guinea pigs. Group 3 guinea pigs were used as a comparator group with elicitation of phototoxicity with 8-MOP. Three chambers (one per formulation dosage) were attached to the dorsal skin along the midline and occluded. After the administration period the chamber patches were removed and the application sites were gently wiped. After wiping, Group 2 and 3 guinea pigs were exposed to solar-simulated UVR for approximately 2.25 hours.
For induction of contact hypersensitivity and photoallergy, a nuchal area of skin approximately 2.5 cm^2 was defined by intradermal injections with a formulation of sterile water and FCA in guinea pigs in Groups 4 through 7 under isoflurane/oxygen anesthesia. This skin area was then tape stripped five times. Formulations were topically administered via chambers as described in the study design table using one chamber attached to the nuchal area. After removal of the chambers the application sites were gently wiped and the nuchal site of Group 6 and 7 guinea pigs was exposed to UVR as above. Appropriate procedures for guinea pigs (with the exception of injection with FCA) were repeated once daily on Days 3, 5, 8, 10 and 12 of the induction phase.
On Day 22 (contact hypersensitivity and photoallergy challenge), formulations were topically applied to appropriate sites on guinea pigs in Groups 4 through 7 as described above. Three chambers (one per formulation dosage) were attached to the dorsal skin along the midline and occluded. The chambers were then removed and the application sites were gently wiped. Guinea pigs in Groups 6 and 7 were then exposed to UVR as above.
Observations for general appearance and clinical signs were made weekly throughout the study. […] Body weights were recorded at initiation of dosing for each phase, weekly thereafter and at sacrifice. […]

In brackets after ≈: the same amount, converted by molar mass. Where two headings read alike, the source gives them in different places. Non-standard residues stand in square brackets, D forms with d. Residues, ends and D or L forms follow the SMILES beside them. d1Nal = N[C@H](Cc1cccc2ccccc12)C(=O)O Where only a bound is given, the exact number is not on record here.

Protocol for S. aureus: Control tubes containing only water or formulation buffer were prepared for each isolate. Initial growth controls were determined by removing 10 μL from the water control tube and diluting it by 100 fold. From this dilution, 10 μL was used for inoculation and for spreading over the surface onto Laked Blood Agar (LBA) (Anaerobe Systems, Morgan Hill, Calif.) plates. The tubes and plates were incubated in an anaerobic atmosphere at 37° C. for 48 h. […] MBC50 and 90 values represent where 50 and 90%, respectively, of the tested strain's MBC values are equal to or less than the indicated concentration.

Consider `CO/N=C(\C(=O)N[C@@H]1C(=O)N2C(C(=O)O)=C(COC(N)=O)CS[C@H]12)c1ccco1` [Cefuroxime], for which the “MBC (antibiotic alone)” value in the data set with E. coli (E. coli 4104 LF) came to 8 µg/mL (≈ 18.9 µM).

As to Neomycin, the “MBC (antibiotic alone)” value with E. coli (E. coli 4104 LF) and in the data set with Staphylococcus aureus (Staphylococcus aureus 342U-116) was 1 µg/mL each time.

For the molecule `CC1COc2c(N3CCN(C)CC3)c(F)cc3c(=O)c(C(=O)O)cn1c23` (stereo not drawn) [Ofloxacin], the “MBC (antibiotic alone)” value with E. coli (E. coli 4104 LF) is “≦0.125 μg/mL”; in the data set on Staphylococcus aureus (Staphylococcus aureus 342U-116) it was 1 µg/mL (≈ 2.77 µM).

For the molecule `CC1(C)S[C@@H]2[C@H](NC(=O)[C@H](N)c3ccccc3)C(=O)N2[C@H]1C(=O)O` [Ampicillin], the “MBC (antibiotic alone)” value in the data set with E. coli (E. coli 4104 LF) was found to be 32 µg/mL (≈ 91.6 µM); against Staphylococcus aureus (Staphylococcus aureus 342U-116) it was 8 µg/mL (≈ 22.9 µM).

On to `C[C@H]1c2cccc(O)c2C(=O)C2=C(O)[C@]3(O)C(=O)C(C(N)=O)=C(O)[C@@H](N(C)C)[C@@H]3[C@@H](O)[C@@H]21` [Doxycycline], for which the MIC in the data set with Pseudomonas aeruginosa is 32 µg/mL (≈ 72 µM); in the data set with Serratia marcescens it was 8 µg/mL (≈ 18 µM); with Klebsiella pneumoniae (Klebsiella pneumoniae 19645), 32 µg/mL (≈ 72 µM); with Klebsiella pneumoniae (Klebsiella pneumoniae 29011) it was 32 µg/mL (≈ 72 µM); with Proteus mirabilis it was 64 µg/mL (≈ 144 µM); in the data set with Escherichia coli, 2 µg/mL (≈ 4.5 µM).

`C/C(=C\C(=O)OCCCCCCCCC(=O)O)C[C@@H]1OC[C@H](C[C@@H]2O[C@H]2[C@@H](C)[C@H](C)O)[C@@H](O)[C@H]1O` [Mupirocin] had an MIC90 in the data set with S. aureus of 4 µg/mL (≈ 7.99 µM).

Consider `CC(C)C[C@@H](NC(=O)[C@H](N)CCCCN)C(=O)N[C@H](Cc1ccccc1)C(=O)N[C@H](CCCNC(=N)N)C(=O)N[C@H](Cc1cccc2ccccc12)C(=O)N[C@H](CCC(N)=O)C(=O)N[C@H](C)C(=O)N[C@H](CCCCN)C(=O)N[C@H](Cc1cccc2ccccc12)C(N)=O` [[^3H]-labeled XMP.629] (H-[dK][dL][dF][dR][d1Nal][dQ][dA][dK][d1Nal]-NH2), for which the “Central compartment volume of distribution” value in [1] is roughly 0.12 L/kg. In addition, the alpha half-life in [1] was roughly 2 min. The same molecule returned a beta half-life in [1] of roughly 45 min. Besides, the clearance (commonly a measure of how efficiently the substance is removed, as volume per time) in [1] was roughly 6 mL/min/kg. For the same molecule, the “plasma concentrations by 24 hours following dosing” value in data set [1] is “approximately 0.005 μg/mL”. In addition, in [1], the terminal half-life was roughly 480 min. The average half-life entry in [1] (three compartment model) is on record as “approximately 0.24 hours”. In addition, the AUC0-tlast in [2] (Adrenal) is on record as 64.98 μg equivalents * hr/g; in [2] (Blood), 0.24 μg equivalents * hr/g; in [2] (Bone marrow), 82.65 μg equivalents * hr/g; in data set [2] (Cervical lymph node), 86.07 μg equivalents * hr/g; in data set [2] (Eye uveal tract), 1.14 μg equivalents * hr/g; in data set [2] (Kidney), 20.20 μg equivalents * hr/g. Further, the AUC0-tlast in [2] (Liver) was determined as 191.86 μg equivalents * hr/g; in [2] (Lung) it was 29.25 μg equivalents * hr/g; in data set [2] (Popliteal lymph node), 165.30 μg equivalents * hr/g; in data set [2] (Renal medulla high) it was 19.83 μg equivalents * hr/g; in [2] (Spleen) it was 60.94 μg equivalents * hr/g; in data set [2] (Thyroid), 23.38 μg equivalents * hr/g.

On to `CCCCCCCCCCCCCC(=O)O[C@@H]1[C@@H](C)[C@@]2(O)[C@@H](C=C(CO)C[C@]3(O)C(=O)C(C)=C[C@@H]23)[C@@H]2C(C)(C)[C@]12OC(C)=O` [TPA, tetradeconyl phorbol acetate], for which the tumor development result in the data set on hemizygous Tg.AC mice (10 μg TPA per application, a single female) is “one latent and one actual papilloma”; with hemizygous Tg.AC mice (2.5 and 5.0 μg per application in XMP.629 acetate gel placebo) it was “did not result in tumor development”. Besides, the “tumor development, females” value in the data set on hemizygous Tg.AC mice (20 μg TPA per application) is given as 4/4. Further, the “tumor development, males” value in the data set with hemizygous Tg.AC mice (20 μg TPA per application) is 2/5.

For Penicillin, the MBC (as a rule, the lowest tested concentration that kills the bacteria rather than only halting them) is greater than 10 µg/mL in the data set on E. coli (E. coli 706U2-1081); greater than 10 µg/mL in the data set with E. coli (E. coli 4104 LF); less than 0.06 µg/mL against Staphylococcus aureus (Staphylococcus aureus 076U-550); greater than 10 µg/mL with Staphylococcus aureus (Staphylococcus aureus 230U-579); greater than 10 µg/mL in the data set on Staphylococcus aureus (Staphylococcus aureus 314U-148); greater than 10 µg/mL against Staphylococcus aureus (Staphylococcus aureus 342U-116). This molecule also returned a minimum bactericidal concentration (MBC) with Staphylococcus aureus (Staphylococcus aureus 15031-1857) greater than 10 µg/mL.

As to `CC(=O)OCC1=C(C(=O)O)N2C(=O)[C@@H](NC(=O)Cc3cccs3)[C@H]2SC1` [Cephalothin], the “MBC (antibiotic alone)” value in the data set on Staphylococcus aureus (Staphylococcus aureus 342U-116) was 1 µg/mL (≈ 2.52 µM).

As to `CCC[C@@H]1C[C@@H](C(=O)N[C@@H]([C@H]2O[C@H](SC)[C@H](O)[C@@H](O)[C@H]2O)[C@H](C)Cl)N(C)C1` [Clindamycin], in the data set on P. acnes [3] (read-out: MIC90 of Standard Topical Agents), the MIC90 was found to be 16 µg/mL (≈ 37.6 µM). The MIC in the data set on P. acnes [3] (read-out: MIC of clindamycin resistant strains) is greater than 64 µg/mL; against P. acnes [5] it was less than 1 µg/mL. The molecule also came in with an MIC/MBC in data set [4] greater than 64 µg/mL. Moreover, the FIC in the data set on P. acnes [6] amounted to 2.

Consider `COc1c2occc2cc2ccc(=O)oc12` [8-MOP, 8-methoxypsoralen, reference compound], for which the phototoxicity result in data set [7] is given as “produced skin reactions indicative of cutaneous phototoxicity”.

Source of the values: patent US20050148495A1, “Methods and materials including for treating acne” (priority 2003, published 2005).
